Experimental data reported in PMC6272674, “Selected Compounds Structurally Related to Acyclic Sesquiterpenoids and Their Antibacterial and Cytotoxic Activity” (Molecules, 2015).
Values after ≈ are worked out from the molar mass of the structure shown.

Key:
[1] = tested on: Staphylococcus aureus ATCC 43300; experiment: Micro-dilution broth MIC, Staphylococcus aureus; format: cell-based; conditions: ATCC43300, 24 h, 37 °C, read-out: Minimum Inhibitory Concentrations MIC
Procedure: (§1) The standard strains, Gram-positive: Staphylococcus aureus ATCC […], Enterococcus faecalis Van B ATCC 51299 and Enterococcus faecium VA sensitive ATCC 35667, and Gram-negative: Escherichia coli ATCC 25922, Klebsiella pneumoniae ATCC 700603 and Acinetobacter baumannii ATCC 19606, came from a collection of the Environmental Biology Department, Medical University of Łódź. The standard strains were cultivated in Columbia Agar Medium and incubated at 37 °C for 24 h in aerobic conditions.
(§2) The antibacterial activity of the racemates and E/Z-mixtures was investigated using the micro‑dilution broth method. The compounds were diluted in ethanol. This stock solution was mixed with 100 µL of Mueller-Hinton broth to obtain concentrations from 10 µg/mL to 80 µg/mL. The mixtures were then transferred to 96-well microtiter plates. The microbial suspension was standardised to a cell density of 1.5 × 10^8 CFU, which was equal to an optical density of 0.5 on the Mc Farland scale by a bio-Merieux densitometer; one well was filled with broth only to act as a control for strain growth.

[2] = tested on: Enterococcus faecalis ATCC 51299; experiment: Micro-dilution broth MIC, Enterococcus faecalis; format: cell-based; conditions: ATCC51299, 24 h, 37 °C, read-out: Minimum Inhibitory Concentrations MIC
Procedure: as §1, §2

[3] = tested on: Acinetobacter baumannii ATCC 19606; experiment: Micro-dilution broth MIC, Acinetobacter baumannii; format: cell-based; conditions: ATCC19606, 24 h, 37 °C, read-out: Minimum Inhibitory Concentrations MIC
Procedure: as §1, §2

[4] = tested on: Enterococcus faecium ATCC 35667; experiment: Micro-dilution broth MIC, Enterococcus faecium; format: cell-based; conditions: ATCC35667, 24 h, 37 °C, read-out: Minimum Inhibitory Concentrations MIC
Procedure: as §1, §2

[5] = tested on: Escherichia coli ATCC 25922; experiment: Micro-dilution broth MIC, Escherichia coli; format: cell-based; conditions: ATCC25922, 24 h, 37 °C, read-out: Minimum Inhibitory Concentrations MIC
Procedure: as §1, §2

[6] = tested on: Klebsiella pneumoniae ATCC 700603; experiment: Micro-dilution broth MIC, Klebsiella pneumoniae; format: cell-based; conditions: ATCC700603, 24 h, 37 °C, read-out: Minimum Inhibitory Concentrations MIC
Procedure: as §1, §2

[7] = tested on: Fibroblasts HFIG; experiment: MTT viability, HFIG; format: cell-based, human; conditions: Homo sapiens, Fibroblast, 24 h, range 10–1000 µM, read-out: half maximal inhibitory concentration (IC50), interpolated
Procedure: (§3) Cell lines and in vitro culture conditions: The human promyelocytic leukaemia cell line HL-60 was obtained from the Centre of Molecular and Macromolecular Biology in Łódź, Poland and was cultured in RPMI 1640 medium with 20% heat-inactivated fetal bovine serum (FBS). To reduce spontaneous differentiation, the cells were never allowed to exceed a concentration of 1.0 × 10^6 cells/mL. The human keratinocyte cell line HaCaT was obtained from Cell Lines Service, Germany (CLS) and cultured in DMEM medium with 10% FBS. Human colorectal adenocarcinoma HT29 and normal epithelial IEC-6 cell lines (from ATCC) were cultured in DMEM medium with 10% FBS. The human skin melanoma cell line MEWO (from CLS) was cultured in DMEM:F12 supplemented with 2 mM L-glutamine and 10% FBS. Human fibroblasts from gingiva isolated from original tissue, HFIB-G, (from Provitro) were cultured in Quantum 333 (from Immunique). The media were supplemented with 100 U/mL penicillin and 100 µg/mL streptomycin; all media components were obtained from Life Technologies. The adherent cell lines used in the studies were seeded on microplates before they exceeded 80% of confluence. Cells were cultured at 37 °C in 5% CO2 air atmosphere/95% air atmosphere.
(§4) Cytotoxic activity: The cells (the density for HL-60 was 0.5 × 10^4 cells/100 µL, otherwise it was 1 × 10^4 cells/100 µL) were plated into each well of 96-well microtiter plates and, after their attachment to the plate surface, treated with 10 µL of the indicated concentrations of compounds for 24 h. Viability was determined by MTT assay following the treatment. MTT (3-[4.5-dimethylthiazol-2-yl]-2.5-diphenyltetrazolium bromide; Sigma, St. Louis, MO, USA) solution was added to each well and incubated for another 4 h. The resulting MTT-formazan product was dissolved by the addition of lysis buffer (20% SDS and 50% DMF). The amount of formazan was determined by measuring absorbance at 570 nm with a Synergy 2 microplate reader (BioTek, Winooski, VT, USA) operated by the Gen5 program. The experiments were conducted three times with five replications. The results are expressed as an optical density ratio of the treatment to control. All data are presented as means ± SD.

[8] = tested on: Keratinocytes HaCaT; experiment: MTT viability, HaCaT; format: cell-based, human; conditions: Homo sapiens, 24 h, range 10–1000 µM, read-out: half maximal inhibitory concentration (IC50), interpolated
Procedure: as §3, §4

[9] = tested on: Malignant Melanoma MEWO; experiment: MTT viability, MEWO; format: cell-based, human; conditions: Homo sapiens, 24 h, range 10–1000 µM, read-out: half maximal inhibitory concentration (IC50), interpolated
Procedure: as §3, §4

[10] = MTT viability, HT29; format: cell-based, human; conditions: human, HT29 colorectal adenocarcinoma cells, 1000 µM (IC50 exceeded 1000 µM), read-out: viability ± standard deviation at 1000 µM
Procedure: as §3, §4

[11] = tested on: Promyelocytic Leukaemia HL-60; experiment: MTT viability, HL-60; format: cell-based, human; conditions: Homo sapiens, HL-60, 24 h, HL-60, MTT, range 10–1000 µM, read-out: half maximal inhibitory concentration (IC50), interpolated
Procedure: as §3, §4

[12] = MTT viability, IEC6; format: cell-based; conditions: rat, IEC-6 small intestine epithelial cells, 1000 µM (IC50 exceeded 1000 µM), read-out: viability ± standard deviation at 1000 µM
Procedure: as §3, §4

[13] = MTT viability, HFIG; format: cell-based, human; conditions: human, HFIG (HFIB-G) gingival fibroblasts, 1000 µM (IC50 exceeded 1000 µM), read-out: viability ± standard deviation at 1000 µM
Procedure: as §3, §4

[14] = MTT viability, HaCaT; format: cell-based, human; conditions: human, HaCaT keratinocytes, 1000 µM (IC50 exceeded 1000 µM), read-out: viability ± standard deviation at 1000 µM
Procedure: as §3, §4

[15] = MTT viability, MEWO; format: cell-based, human; conditions: human, MEWO malignant melanoma cells, 1000 µM (IC50 exceeded 1000 µM), read-out: viability ± standard deviation at 1000 µM
Procedure: as §3, §4

Row | Compound | MIC [1] | MIC [2] | MIC [3] | MIC [4] | MIC [5] | MIC [6] | IC50 [7] | IC50 [8] | IC50 [9] | viability at 24 h, 1000 µM [10] | IC50 [11] | viability at 24 h, 1000 µM [12] | viability at 24 h, 1000 µM [13] | viability at 24 h, 1000 µM [14] | viability at 24 h, 1000 µM [15]
1 | O=C(O)c1cn(C2CC2)c2cc(N3CCNCC3)c(F)cc2c1=O [Ciprofloxacin, reference compound] | 8 µg/mL (≈ 24.1 µM) | 2 µg/mL (≈ 6.04 µM) | 4 µg/mL (≈ 12.1 µM) | 8 µg/mL (≈ 24.1 µM) | 4 µg/mL (≈ 12.1 µM) | 2 µg/mL (≈ 6.04 µM) | – | – | – | – | – | – | – | – | –
2 | CC(C)=CCCC(C)C(C)=CCCC(C)=CC=O (stereo not drawn) [Compound 18, 3,7,8,12-Tetramethyltrideca-2,6,11-trienal] | 18 µg/mL (≈ 72.5 µM) | 22 µg/mL (≈ 88.6 µM) | 46 µg/mL (≈ 185 µM) | 28 µg/mL (≈ 113 µM) | 52 µg/mL (≈ 209 µM) | 46 µg/mL (≈ 185 µM) | 690 µM | 800 µM | 630 µM | 98% | 502 µM | 79% | – | – | –
3 | CC(C)=CCCC(C)/C=C/CCC(C)=CC=O (stereo not drawn) [Compound 19, (6E)-3,8,12-Trimethyltrideca-2,6,11-trienal] | 28 µg/mL (≈ 119 µM) | 34 µg/mL (≈ 145 µM) | 42 µg/mL (≈ 179 µM) | 38 µg/mL (≈ 162 µM) | 44 µg/mL (≈ 188 µM) | 36 µg/mL (≈ 154 µM) | 750 µM | 650 µM | 600 µM | 96% | 550 µM | 94% | – | – | –
4 | CC(=O)OCC=C(C)CCC=C(C)C(C)CCC=C(C)C (stereo not drawn) [Compound 30, 3,7,8,12-Tetramethyltrideca-2,6,11-trien-1-yl acetate] | 30 µg/mL | 24 µg/mL | 24 µg/mL | 18 µg/mL | 30 µg/mL | 24 µg/mL | – | 900 µM | 850 µM | 96% | 289 µM | 86% | 105% | – | –
5 | CC(=O)OC/C=C(\C)CCC=CC(C)CCC=C(C)C (stereo not drawn) [Compound 31, (E)-3,8,12-Trimethyltrideca-2,6,11-trien-1-yl acetate] | 24 µg/mL | 20 µg/mL | 18 µg/mL | 20 µg/mL | 26 µg/mL | 22 µg/mL | 850 µM | – | 930 µM | 107% | 350 µM | 94% | – | 98% | –
6 | CC(=O)OCC=C(C)CC(C)CCC=C(C)C (stereo not drawn) [Compound 33, 3,5,9-Trimethyldeca-2,8-dien-1-yl acetate] | 26 µg/mL | 18 µg/mL | 22 µg/mL | 16 µg/mL | 26 µg/mL | 18 µg/mL | – | – | – | 110% | 400 µM | 95% | 100% | 101% | 103%
7 | CC(=O)OCC=C(C)CCC(C)CCC=C(C)C (stereo not drawn) [Compound 34, 3,6,10-Trimethylundeca-2,9-dien-1-yl acetate] | 32 µg/mL | 20 µg/mL | 18 µg/mL | 18 µg/mL | 18 µg/mL | 20 µg/mL | – | – | – | 98% | 312 µM | 79% | 99% | 110% | 98%
8 | CC(=O)OCC=C(C)C(C)CC(C)CCC=C(C)C (stereo not drawn) [Compound 35, 3,4,6,10-Tetramethylundec-2,9-dien-1-yl acetate] | 34 µg/mL | 16 µg/mL | 12 µg/mL | 14 µg/mL | 16 µg/mL | 18 µg/mL | – | – | – | 83% | 343 µM | 71% | 87% | 102% | 112%
9 | CC(=O)OCC=C(C)CCC=C(C)CCC=C(C)C [Farnesyl acetate (5), farnesyl acetate, reference compound] | 28 µg/mL | 20 µg/mL | 22 µg/mL | 20 µg/mL | 28 µg/mL | 22 µg/mL | – | – | 734 µM | 105% | 121 µM | 78% | 98% | 102% | –
10 | CNC(C)C1CCC(N)C(OC2C(N)CC(N)C(OC3OCC(C)(O)C(NC)C3O)C2O)O1 (stereo not drawn) [Gentamicin, reference compound] | 16 µg/mL (≈ 33.5 µM) | > 64 µg/mL | 32 µg/mL (≈ 67 µM) | 32 µg/mL (≈ 67 µM) | 4 µg/mL (≈ 8.38 µM) | 32 µg/mL (≈ 67 µM) | – | – | – | – | – | – | – | – | –
